Assay type in all cases: in vivo
For assay [1], the system named is house fly (Musca domestica). The assay can be described thus: Larvicidal test against larvae of house fly (Test Example 4). The settings on record: feed or water, 240 h, 10 ppm in feed, second instar larvae, 10th day after release, emerged adults counted. As to the method:
Powder feed for test animals (manufactured by Oriental Kobo Kogyo K.K.) and bran were mixed in a weight ratio of 1:1 and pulverized, and 10 g of the mixture was packed in an ice cream cup. Each of the formulations containing the active ingredients, was dispersed in water, and 10 ml of the dispersion was added to the mixture in the ice cream cup and thoroughly mixed to adjust the concentration of the active ingredient to 10 ppm. Into the ice cream cup, 20 larvae of house fly (Musca domestica) in second instar were released, and kept in a constant temperature chamber with lightening at 26° C. On the 10th day after the release, the emerged adults were counted, and the mortality was calculated in accordance with the following equation. [formula]

Assay [2] has as its system house fly (Musca domestica). The assay can be described thus: Egg hatch inhibition test by the treatment of adults of house fly (Test Example 6). The settings on record: po, 100 μg/g in diet of adult females for 3 days, unhatched eggs assessed one day after collection, read-out: ratio of the egg hatch inhibition (REHI). The protocol: Sugar and skim milk were mixed in a weight ratio of 1:1, and 2 g of the mixture was put into a Petri dish having a diameter of 5.5 cm. 0.5 ml of an acetone solution containing the active ingredient was added to the mixture in the Petri dish. After acetone evaporated, the treated mixture was thoroughly mixed, and the concentration of the active ingredient was adjusted to 100 μg/g. Twenty non-mating females of house fly (Musca domestica) were allowed to feed on the poisoned diet (the treated mixture) in a cage. After 3 days, the diet was changed to the untreated mixture, then 20 non-mating males were released into the cage for mating. On the 3rd day after release, a cup of the medium for rearing fly larvae was set in the cage for oviposition for 7 hours. The egg laid on the medium were collected and kept on the moistened filter paper in a Petri dish. One day later, unhatched eggs were assessed and the ratio of the egg hatch inhibition (REHI) was calculated by the following equation: [formula]

The test system of assay [3] is two-spotted spider mite (Tetranychus urticae). The assay can be described thus: Miticidal test against two-spotted spider mite (Test Example 1). The settings on record: 120 h, 5th day after treatment, larvae and nimphs on French bean, 26° C. The text has this:
Each formulation containing an active ingredient was dispersed in water to obtain a dispersion of each active ingredient having a concentration of 800 or 200 ppm. Each of French bean seedlings with only on primary leaf left, was transplanted to a cup having a diameter of 7 cm and a height of 4 cm. About 30 larvae and […] of two-spotted spider mite (Tetranychus urticae) were infested to the leaf of the French bean. Then, the French bean was dipped in the dispersion having the concentration of 800 ppm or 200 ppm for about 10 seconds, then dried in air and kept in a constant temperature chamber with lightening at 26° C. On the 5th day after the treatment, dead mites were counted, and the mortality was calculated by the following equation: [formula]

The test system of assay [4] is house mosquito (Cullex pipiens pallens). Nature of the assay: Larvicidal test against larvae of house mosquito (Test Example 5). The settings on record: 216 h, 2.5 ppb, 9th day after release, 26° C. As to the method:
Two hundreds ml of a diluted solution containing 2.5 ppb of each active ingredient was poured into a jar and 20 larvae of house mosquito (Cullex pipiens pallens) were released into the jar. Then, the jar was kept in a constant temperature chamber with lightening at 26° C. Larvae were fed every other day with 1-2 mg of powdered feed. On the 9th day after the release, dead insects were counted, and the mortality was calculated in the same manner as in Test Example 2. The results are shown in […]

The structures appear in SMILES notation.

The term mortality denotes the percentage killed. Read a low mortality as more survivors. `CN(C(=O)NC(=O)c1c(F)cccc1F)c1cc(F)c(-c2ccc(C(F)(F)F)cc2)cc1F` [Compound No. 24]: the mortality at 10 ppm in assay [1] was determined as 100%. The inhibition at 100 µg/g in assay [2] was 100%.
Regarding `CN(C(=O)NC(=O)c1c(F)cccc1F)c1ccc(Oc2ccc(C(F)(F)F)cc2Cl)cc1` [Compound No. 18, N-[4-(2-chloro-4-trifluoromethylphenoxy)phenyl]-N'-(2,6-difluorobenzoyl)-N-methylurea], the mortality at 200 ppm in assay [3] is 100%.
Take `CN(C(=O)NC(=O)c1c(F)cccc1F)c1ccc(Oc2ncc(C(F)(F)F)cc2Cl)c(F)c1F` [Compound No. 2, N-[4-(3-chloro-5-trifluoromethyl-2-pyridyloxy)-2,3-difluorophenyl]-N'-(2,6, -difluorobenzoyl)-N-methylurea]: the mortality at 0.0025 ppm in assay [4] is 90%.
In assay [3], `CN(C(=O)NC(=O)c1c(F)cccc1F)c1ccc(Oc2ccc(C(F)(F)F)cc2Cl)c(F)c1` [Compound No. 4, N-{4-[2-chloro-4-trifluoromethylphenoxy]-3-fluorophenyl}-N'-(2,6-difluorobenzoyl)-N-methylurea] returned a mortality at 800 ppm of 90%. Further, the mortality at 0.0025 ppm in assay [4] turned out to be 100%.
With `CN(C(=O)NC(=O)c1c(F)cccc1F)c1cc(Cl)c(Oc2ncc(C(F)(F)F)cc2Cl)c(Cl)c1` [Compound No. 1, N-[3,5-dichloro-4-(3-chloro-5-trifluoromethyl-2-pyridyloxy)phenyl]-N'-(2,6difluorobenzoyl)-N-methylurea], the inhibition at 100 µg/g in assay [2] was determined as 100%. The mortality at 0.0025 ppm in assay [4] stood at 100%.
In the case of `CN(C(=O)NC(=O)c1c(F)cccc1F)c1ccc(Oc2ccc(C(F)(F)F)cc2Cl)c(Cl)c1F` [compound 13, N-[3-chloro-4-(2-chloro-4-trifluoromethylphenoxy)-2-fluorophenyl]-N'-(2,6-difluorobenzoyl)-N-methylurea], the mortality at 10 ppm in assay [1] was 100%. In assay [3], this molecule showed a mortality at 200 ppm of 99%. Also, the inhibition at 100 µg/g in assay [2] turned out to be 100%.
Regarding `CN(C(=O)NC(=O)c1c(F)cccc1F)c1ccc(Oc2ccc(C(F)(F)F)cc2Cl)c(Cl)c1` [compound 12, N-[3-chloro-4-(2-chloro-4-trifluoromethylphenoxy)phenyl]-N'-(2,6-difluorobenzoyl)-N-methylurea], the mortality at 10 ppm in assay [1] came to 100%. In assay [3], the mortality at 200 ppm amounted to 100% and the mortality at 800 ppm is 100%. For the same molecule, in assay [2], the inhibition at 100 µg/g came to 100%.
Turning to `CN(C(=O)NC(=O)c1c(F)cccc1F)c1ccc(Oc2ncc(C(F)(F)F)cc2Cl)c(F)c1` [Compound No. 3, N-{4-[3-chloro-5-trifluoromethyl-2-pyridyloxy]-3-fluorophenyl}-N'-(2,6-difluorobenzoyl)-N-methylurea], the inhibition at 100 µg/g in assay [2] was determined as 88%. In assay [4], this molecule showed a mortality at 0.0025 ppm of 100%.
On to `COC(=O)c1cc(N(C)C(=O)NC(=O)c2c(F)cccc2F)cc(C)c1Oc1ncc(C(F)(F)F)cc1Cl` [Compound No. 6], for which, in assay [1], the mortality at 10 ppm is 90%.

Values taken from patent publication US4985449A, “N-benzoyl-N-pyridyloxy phenyl urea compounds and pesticide compositions containing them” (Ishihara Sangyo Kaisha Ltd., priority 1986, dated 1991).
